The values that follow are results of earlier work, collected in patent US20250231185A1, “Coronavirus T Cell Epitopes, Megapools and Uses Thereof” (La Jolla Institute for Immunology, priority 2021, published 2025).

The data set relates to CD8+ T cells. The following applies: CD8R (D) megapool epitopes; dominant = recognized by 3 or more donors/different studies; cited from earlier work.
Regarding 1702 (ASAFFGMSR) [compound 1702], the Dominant result is “Yes (more dominant epitopes are defined by being recognized by 3 or more donors/different studies)”.

As for 1703 (GMSRIGMEV) [compound 1703], the Dominant entry is “Yes (more dominant epitopes are defined by being recognized by 3 or more donors/different studies)”.

On to 1704 (MEVTPSGTW) [compound 1704], for which the Dominant result is given as “Yes (more dominant epitopes are defined by being recognized by 3 or more donors/different studies)”.

Turning to 1705 (MEVTPSGTWL) [compound 1705], the Dominant entry is reported as “Yes (more dominant epitopes are defined by being recognized by 3 or more donors/different studies)”.

As for 1706 (ILLNKHIDA) [compound 1706], the Dominant result is recorded as “Yes (more dominant epitopes are defined by being recognized by 3 or more donors/different studies)”.

On to 1709 (LPAADLDDF) [compound 1709], for which the Dominant entry is listed as “Yes (more dominant epitopes are defined by being recognized by 3 or more donors/different studies)”.

For 1710 (FSKQLQQSM) [compound 1710], the Dominant result was “Yes (more dominant epitopes are defined by being recognized by 3 or more donors/different studies)”.

Consider 1711 (VLSEARQHL) [compound 1711], for which the Dominant result is “Yes (more dominant epitopes are defined by being recognized by 3 or more donors/different studies)”.

Consider 1712 (TVLSFCAFAV) [compound 1712], for which the Dominant result is listed as “Yes (more dominant epitopes are defined by being recognized by 3 or more donors/different studies)”.

For 1713 (DLKGKYVQI) [compound 1713], the Dominant result is “Yes (more dominant epitopes are defined by being recognized by 3 or more donors/different studies)”.

In the case of 1714 (YTMADLVYAL) [compound 1714], the Dominant entry is “Yes (more dominant epitopes are defined by being recognized by 3 or more donors/different studies)”.

With 1715 (TMADLVYAL) [compound 1715], the Dominant result is “Yes (more dominant epitopes are defined by being recognized by 3 or more donors/different studies)”.

For 1716 (LLMPILTLT) [compound 1716], the Dominant entry was “Yes (more dominant epitopes are defined by being recognized by 3 or more donors/different studies)”.

With 1717 (KLFDRYFKY) [compound 1717], the Dominant result is recorded as “Yes (more dominant epitopes are defined by being recognized by 3 or more donors/different studies)”.

For the substance 1718 (FVDGVPFVV) [compound 1718], the Dominant entry is on record as “Yes (more dominant epitopes are defined by being recognized by 3 or more donors/different studies)”.

With 1719 (ISDYDYYRY) [compound 1719], the Dominant result is recorded as “Yes (more dominant epitopes are defined by being recognized by 3 or more donors/different studies)”.

Consider 1720 (RQLLFVVEV) [compound 1720], for which the Dominant result is reported as “Yes (more dominant epitopes are defined by being recognized by 3 or more donors/different studies)”.

With 1721 (VVDKYFDCY) [compound 1721], the Dominant result is on record as “Yes (more dominant epitopes are defined by being recognized by 3 or more donors/different studies)”.

1722 (RLYYDSMSY) [compound 1722]: the Dominant entry is recorded as “Yes (more dominant epitopes are defined by being recognized by 3 or more donors/different studies)”.

In the case of 1723 (MVMCGGSLYV) [compound 1723], the Dominant result was “Yes (more dominant epitopes are defined by being recognized by 3 or more donors/different studies)”.

As to 1724 (DTDFVNEFY) [compound 1724], the Dominant entry was “Yes (more dominant epitopes are defined by being recognized by 3 or more donors/different studies)”.

Consider 1725 (FYAYLRKHF) [compound 1725], for which the Dominant entry was “Yes (more dominant epitopes are defined by being recognized by 3 or more donors/different studies)”.

Consider 1726 (RILGAGCFV) [compound 1726], for which the Dominant entry is “Yes (more dominant epitopes are defined by being recognized by 3 or more donors/different studies)”.

1728 (LYLQYIRKL) [compound 1728]: the Dominant entry is “Yes (more dominant epitopes are defined by being recognized by 3 or more donors/different studies)”.

For the substance 1729 (VLQAVGACV) [compound 1729], the Dominant entry is recorded as “Yes (more dominant epitopes are defined by being recognized by 3 or more donors/different studies)”.

Regarding 1730 (LVLSVNPYV) [compound 1730], the Dominant result is given as “Yes (more dominant epitopes are defined by being recognized by 3 or more donors/different studies)”.

As for 1733 (VVYRGTTTY) [compound 1733], the Dominant entry is “Yes (more dominant epitopes are defined by being recognized by 3 or more donors/different studies)”.

1734 (VVYRGTTTYK) [compound 1734]: the Dominant entry is on record as “Yes (more dominant epitopes are defined by being recognized by 3 or more donors/different studies)”.

As to 1735 (VYRGTTTYKL) [compound 1735], the Dominant result was “Yes (more dominant epitopes are defined by being recognized by 3 or more donors/different studies)”.

Take 1736 (KLNVGDYFV) [compound 1736]: the Dominant entry is listed as “Yes (more dominant epitopes are defined by being recognized by 3 or more donors/different studies)”.

On to 1737 (SSNVANYQK) [compound 1737], for which the Dominant entry was “Yes (more dominant epitopes are defined by being recognized by 3 or more donors/different studies)”.

Turning to 1738 (VYIGDPAQL) [compound 1738], the Dominant entry is “Yes (more dominant epitopes are defined by being recognized by 3 or more donors/different studies)”.

On to 1739 (IVDTVSALV) [compound 1739], for which the Dominant result is “Yes (more dominant epitopes are defined by being recognized by 3 or more donors/different studies)”.

For the substance 1741 (VLWAHGFEL) [compound 1741], the Dominant result was “Yes (more dominant epitopes are defined by being recognized by 3 or more donors/different studies)”.

For 1742 (TYACWHHSI) [compound 1742], the Dominant entry was “Yes (more dominant epitopes are defined by being recognized by 3 or more donors/different studies)”.

Turning to 1743 (AIMTRCLAV) [compound 1743], the Dominant result is on record as “Yes (more dominant epitopes are defined by being recognized by 3 or more donors/different studies)”.

1744 (IEYPIIGDEL) [compound 1744]: the Dominant entry is “Yes (more dominant epitopes are defined by being recognized by 3 or more donors/different studies)”.

Take 1745 (ALLADKFPV) [compound 1745]: the Dominant result is “Yes (more dominant epitopes are defined by being recognized by 3 or more donors/different studies)”.

On to 1746 (SYATHSDKF) [compound 1746], for which the Dominant result is “Yes (more dominant epitopes are defined by being recognized by 3 or more donors/different studies)”.

Consider 1748 (MMISAGFSL) [compound 1748], for which the Dominant entry is “Yes (more dominant epitopes are defined by being recognized by 3 or more donors/different studies)”.

1749 (KQFDTYNLW) [compound 1749]: the Dominant entry was “Yes (more dominant epitopes are defined by being recognized by 3 or more donors/different studies)”.

For the substance 1750 (NLWNTFTRL) [compound 1750], the Dominant entry was “Yes (more dominant epitopes are defined by being recognized by 3 or more donors/different studies)”.

Consider 1751 (KVDGVDVEL) [compound 1751], for which the Dominant entry was “Yes (more dominant epitopes are defined by being recognized by 3 or more donors/different studies)”.

Consider 1752 (LLLDDFVEII) [compound 1752], for which the Dominant result is “Yes (more dominant epitopes are defined by being recognized by 3 or more donors/different studies)”.

As to 1753 (MLWCKDGHV) [compound 1753], the Dominant result is reported as “Yes (more dominant epitopes are defined by being recognized by 3 or more donors/different studies)”.

As for 1754 (GVAMPNLYK) [compound 1754], the Dominant entry is “Yes (more dominant epitopes are defined by being recognized by 3 or more donors/different studies)”.

For the substance 1755 (KMQRMLLEK) [compound 1755], the Dominant entry was “Yes (more dominant epitopes are defined by being recognized by 3 or more donors/different studies)”.

Take 1758 (KTIQPRVEK) [compound 1758]: the Dominant entry is on record as “Yes (more dominant epitopes are defined by being recognized by 3 or more donors/different studies)”.

For 1759 (KLVNKFLAL) [compound 1759], the Dominant result is “Yes (more dominant epitopes are defined by being recognized by 3 or more donors/different studies)”.

As for 1760 (VTNNTFTLK) [compound 1760], the Dominant result was “Yes (more dominant epitopes are defined by being recognized by 3 or more donors/different studies)”.

1761 (FGDDTVIEV) [compound 1761]: the Dominant entry is reported as “Yes (more dominant epitopes are defined by being recognized by 3 or more donors/different studies)”.

With 1762 (PTDNYITTY) [compound 1762], the Dominant result was “Yes (more dominant epitopes are defined by being recognized by 3 or more donors/different studies)”.

On to 1763 (QEILGTVSW) [compound 1763], for which the Dominant entry is recorded as “Yes (more dominant epitopes are defined by being recognized by 3 or more donors/different studies)”.

With 1764 (TTDPSFLGRY) [compound 1764], the Dominant result was “Yes (more dominant epitopes are defined by being recognized by 3 or more donors/different studies)”.

Consider 1765 (YLATALLTL) [compound 1765], for which the Dominant entry is “Yes (more dominant epitopes are defined by being recognized by 3 or more donors/different studies)”.

On to 1766 (SAPPAQYEL) [compound 1766], for which the Dominant result is on record as “Yes (more dominant epitopes are defined by being recognized by 3 or more donors/different studies)”.

Consider 1767 (NYMPYFFTL) [compound 1767], for which the Dominant result is listed as “Yes (more dominant epitopes are defined by being recognized by 3 or more donors/different studies)”.

1768 (ASMPTTIAK) [compound 1768]: the Dominant entry is reported as “Yes (more dominant epitopes are defined by being recognized by 3 or more donors/different studies)”.

On to 1769 (ILFTRFFYV) [compound 1769], for which the Dominant result is listed as “Yes (more dominant epitopes are defined by being recognized by 3 or more donors/different studies)”.

In the case of 1770 (YIFFASFYY) [compound 1770], the Dominant result was “Yes (more dominant epitopes are defined by being recognized by 3 or more donors/different studies)”.
